Reference: ChEMBL document CHEMBL2046380, “Synthesis and structure-activity relationship of disubstituted benzamides as a novel class of antimalarial agents” (Bioorg Med Chem Lett, 2012)

How the values were obtained:
Plasmodium falciparum [1] = assay: Antimalarial activity against […] incubated for 72 hrs by DNA staining based MARK1 growth inhibition assay; format: functional, organism-based
Plasmodium falciparum [2] = assay: Antimalarial activity against chloroquine-sensitive Plasmodium falciparum 3D7 incubated for 72 hrs by DNA staining based MAR3D7 growth inhibition assay; format: functional, organism-based; settings: 3D7, 72 h
HepG2 = assay: Cytotoxicity against human HepG2 cells after 72 hrs by […] CellTiterGlo reagent assay; format: cell-based; settings: HepG2, 72 h
Raji = assay: Cytotoxicity against human Raji cells after 72 hrs by […] CellTiterGlo reagent assay; format: cell-based
BJ = assay: Cytotoxicity against human BJ cells after 72 hrs by […] CellTiterGlo reagent assay; format: cell-based
HEK293 = assay: Cytotoxicity against human HEK293 cells after 72 hrs by […] CellTiterGlo reagent assay; format: cell-based; settings: HEK293, 72 h

Compound | EC50 (Plasmodium falciparum [1]) [µM] | EC50 (Plasmodium falciparum [2]) [µM] | EC50 (HepG2) [µM] | EC50 (Raji) [µM] | EC50 (BJ) [µM] | EC50 (HEK293) [µM]
CC(C)N(Cc1ccc(OCCCCCC(=O)O)cc1)C(=O)c1ccc(-c2ccc3c(c2)OCO3)cc1 | 1.82 | > 15 | > 26 | > 26 | > 26 | > 26
CC(C)N(Cc1ccccc1OCCCCCC(=O)O)C(=O)c1ccc(-c2ccc3c(c2)OCO3)cc1 | > 15 | > 15 | > 26 | > 26 | > 26 | > 26
CCOC(=O)CCCCCOc1cccc(CN(C(=O)c2ccc(-c3cccc(C(C)=O)c3)cc2)C(C)C)c1 | > 15 | > 1.5 | > 26 | > 26 | > 26 | > 26
COC(=O)CCCC1=NCCc2cc(OC)c(OC)cc21 | > 7.51 | > 7.51 | > 13 | > 13 | > 13 | > 13
CCOC(=O)CCCCCOc1ccc(CNC(C)C)cc1 | > 15 | > 15 | > 26 | > 26 | > 26 | > 26
CCCN(Cc1cccc(OCCCCCC(=O)OCC)c1)C(=O)c1ccc(-c2ccc3c(c2)OCO3)cc1 | > 15 | > 15 | > 26 | > 26 | > 26 | > 26
CCOC(=O)CCCCCOc1cccc(CN(C(=O)c2ccc(-c3cccc(Br)c3)cc2)C(C)C)c1 | > 15 | > 15 | > 26 | > 26 | > 26 | > 26
C=CCCN(CCc1ccc(OC)c(OC)c1)C(=O)CC(C)=O | > 7.51 | > 7.51 | > 13 | > 13 | > 13 | > 13
CC(C)N(Cc1cccc(OCCCCCC(=O)O)c1)C(=O)c1ccc(-c2cccc(N(C)C)c2)cc1 | > 15 | > 15 | > 26 | > 26 | > 26 | > 26
CCOC(=O)CCCCCOc1cccc(CN(C(=O)c2ccc(-c3ccc4[nH]ccc4c3)cc2)C(C)C)c1 | > 15 | > 15 | > 26 | > 26 | > 26 | > 26
CCOC(=O)CCCCCOc1cccc(CN(C(=O)c2ccc(-c3cc(F)cc(OC)c3)cc2)C(C)C)c1 | > 15 | > 15 | > 26 | > 26 | > 26 | > 26
CCOC(OCC)C(=O)NCCc1ccc(OC)c(OC)c1 | > 7.51 | > 7.51 | > 13 | > 13 | > 13 | > 13
CC(C)N(Cc1cccc(OCCCCCC(=O)O)c1)C(=O)c1ccc(-c2cccc(OC(F)(F)F)c2)cc1 | > 15 | > 15 | > 26 | > 26 | > 26 | > 26
CCOC(=O)CCCCCOc1cccc(CN(C(=O)c2ccc(-c3cccc4ccccc34)cc2)C(C)C)c1 | > 15 | > 15 | > 26 | > 26 | > 26 | > 26
O=C(O)c1cc(-c2ccco2)nc2ccccc12 | > 15 | > 15 | > 26 | > 26 | > 26 | > 26
CCOC(=O)/C=C1\NCCc2cc3c(cc21)OCO3 | > 7.51 | > 7.51 | > 13 | > 13 | > 13 | > 13

Compound | EC50 (Plasmodium falciparum [1]) [µM] | EC50 (Plasmodium falciparum [2]) [µM] | EC50 (HepG2) [µM] | EC50 (Raji) [µM] | EC50 (BJ) [µM] | EC50 (HEK293) [µM]
C=CCCC1=NCC(O[Si](C)(C)C(C)(C)C)c2cc(OC)c(OC)cc21 (configuration not stated) | 3.06 | 2.95 | > 13 | > 13 | > 13 | > 13
CC(C)(C)OC(=O)NCC(OC(=O)C(O)CO)c1ccc2c(c1)OCO2 (configuration not stated) | > 7.51 | > 7.51 | > 13 | > 13 | > 13 | > 13
CC(C)N(Cc1cccc(OCCCCCC(=O)O)c1)C(=O)c1ccc(-c2ccc3ccccc3c2)cc1 | > 15 | < 0.0004 | > 26 | > 26 | > 26 | > 26
C=CCCC1=NCCc2cc(OC)c(OC)cc21 | > 7.51 | > 7.51 | > 13 | > 13 | > 13 | > 13
COc1ccc(CCNC(=O)CCO[Si](C)(C)C(C)(C)C)cc1OC | > 7.51 | > 2.58 | 4.89 | 6.9 | > 13 | > 13
CCOc1cccc(-c2ccc(C(=O)N(Cc3cccc(OCCCCCC(=O)O)c3)C(C)C)cc2)c1 | > 11.5 | > 11.5 | > 20.9 | > 20.9 | > 20.9 | > 20.9
COc1cc(C)ccc1OCCOc1ccccc1F | > 15 | > 15 | > 26 | > 26 | > 26 | > 26
CCOC(=O)CCCCCOc1cccc(CN(C(=O)c2ccc(-c3cccc(OC(F)(F)F)c3)cc2)C(C)C)c1 | > 15 | > 15 | > 26 | > 26 | > 26 | > 26
CCOC(=O)CCCCCOc1ccc(CN(C(=O)c2ccc(-c3ccc4c(c3)OCO4)cc2)C(C)C)cc1 | > 15 | > 15 | > 26 | > 26 | > 26 | > 26
O=C(O)c1cc(-c2cccs2)nc2ccccc12 | 0.822 | 0.664 | > 26 | > 26 | > 26 | > 26
CCCN(Cc1ccc(OCCCCCC(=O)O)cc1)C(=O)c1ccc(-c2ccc3c(c2)OCO3)cc1 | 0.928 | > 15 | > 26 | > 26 | > 26 | > 26
CCOC(=O)CC(=O)NCCc1ccc(OC)c(OC)c1 | > 7.51 | > 7.51 | > 13 | > 13 | > 13 | > 13
CCOC(=O)CCCCCOc1cccc(CN(C(=O)c2ccc(-c3cccc(CC(=O)O)c3)cc2)C(C)C)c1 | > 15 | > 15 | > 26 | > 26 | > 26 | > 26
CCOC(=O)CCCCCOc1cccc(CN(C(=O)c2ccc(-c3cccc(-c4ccccc4)c3)cc2)C(C)C)c1 | > 15 | > 15 | > 26 | > 26 | > 26 | > 26
CC(=O)c1cccc(-c2ccc(C(=O)N(Cc3cccc(OCCCCCC(=O)O)c3)C(C)C)cc2)c1 | > 15 | < 0.0004 | > 26 | > 26 | > 26 | > 26
CCCN(Cc1ccc(OCCCCCC(=O)OCC)cc1)C(=O)c1ccc(-c2ccc3c(c2)OCO3)cc1 | > 15 | > 15 | > 26 | > 26 | > 26 | > 26
